The test system of one data set is AML12 cells. Nature of the data set: Annexin V-FITC/propidium iodide assay AML12. Format: cell-based. The conditions noted are these: 5 μM, 24-48 hours. The method, then:
FIG. 8 depicts, in accordance with various embodiments of the invention, results of an annexin V-FITC/propidium iodide binding assay performed in human and mouse hepatocytes, AML12, HEK293, HepG2, and RKO cells after treatment with 5 μM of a GIT1 inhibitor or DMSO for 24-48 hours (results are shown as mean±SE from at least 3 experiments. *p<0.05 vs. DMSO).
An annexin V-FITC/propidium iodide (PI) binding assay was performed with flow cytometry. […] Both G2/M arrest and cell death are mechanisms by which compound C3 inhibits cancer cells' growth.

The test system of the next data set is MC38 cells. The data set is described as follows: MC38 CRC liver metastasis (CRLM) model in immune competent mice. Type of data set: in vivo. The method, then:
FIG. 40A-FIG. 40E depicts, in accordance with various embodiments of the invention, compound C3 inhibits CRC liver metastasis in immune competent mice. MC38 cells (2.5×10^5) stably expressing luciferase where injected intrasplenically followed by splenectomy. 7 days later compound C3 (20 mg/kg on day 1 sinc MC38 grows rapidly, then 15 mg/kg daily×3 days, rest for 2 days, then 15 mg/kg×2 days) or DMSO were given ip. Small animal imaging (FIG. 40A). H&E of tumors (FIG. 40B). Luciferase intensity at various time points (FIG. 40C). Gross pictures of the livers at day 9 (FIG. 40D), ALT and AST levels after above, or compound C3 (15 mg/kg/d for 21 days), *p<0.05 vs. DMSO (FIG. 40E).
Compound C3 powder was dissolved in pure DMSO at 50 mg/ml, as a stock store in-80 °C. Stock solution was dissolved in 200 μl 0.9% saline to reach 15 mg/kg. For control group, DMSO was dissolved in 200 μl saline to achieve a concentration of DMSO in saline of 4.5%. MC38 cells (2.5×105) stably expressing luciferase were injected intrasplenically followed by splenectomy (CRLM model). Seven days later, Compound C3 (20 mg/kg on day 1, then 15 mg/kg daily ×3 days, rest for 2 days, then 15 mg/kg×2 days) or DMSO were administered ip.

`CC1(C)Cc2nc3sc4c(=O)n(CC(=O)NCc5ccco5)cnc4c3cc2CO1` [Compound C3, 2-(8,8-Dimethyl-4-oxo-7,10-dihydro-8H-pyrano[3″,4″: 5′,6′]pyrido[3′,2′: 4,5]thieno[3,2-d]pyrimidin-3 (4H)-yl)-N-(2-furylmethyl) acetamide]: the “cell death, AML12” value in the data set on AML12 cells is “does not induce cell death”. Also, in the data set with MC38 cells (ip 20 mg/kg day 1, 15 mg/kg daily ×3 days, rest 2 days, 15 mg/kg×2 days), the “tumor growth, liver metastasis” value is “Tumor growth was inhibited”. Further, in the data set on MC38 cells (ip 20 mg/kg day 1, then 15 mg/kg, ALT and AST), the toxicity result is “without toxicity”.

Source of the values: US20260356849A1, “COMPOUNDS AND METHODS FOR TREATING CANCERS” (CEDARS-SINAI MEDICAL CENTER, priority 2022, published 2026).
